From ChEMBL document CHEMBL4011597, “Synthesis, screening and docking of fused pyrano[3,2-d]pyrimidine derivatives as xanthine oxidase inhibitor” (Eur J Med Chem, 2017)

Legend:
[1] = biological target: T1, Xanthine dehydrogenase/oxidase (Bos taurus, UniProt P80457); test: Inhibition of bovine xanthine oxidase assessed as reduction in uric acid formation at 1 uM using xanthine as substrate pretreated for 5 mins followed by substrate addition measured by UV-vis spectrophotometric method relative to control; settings: cattle
T1 sequence (P80457 whole entry): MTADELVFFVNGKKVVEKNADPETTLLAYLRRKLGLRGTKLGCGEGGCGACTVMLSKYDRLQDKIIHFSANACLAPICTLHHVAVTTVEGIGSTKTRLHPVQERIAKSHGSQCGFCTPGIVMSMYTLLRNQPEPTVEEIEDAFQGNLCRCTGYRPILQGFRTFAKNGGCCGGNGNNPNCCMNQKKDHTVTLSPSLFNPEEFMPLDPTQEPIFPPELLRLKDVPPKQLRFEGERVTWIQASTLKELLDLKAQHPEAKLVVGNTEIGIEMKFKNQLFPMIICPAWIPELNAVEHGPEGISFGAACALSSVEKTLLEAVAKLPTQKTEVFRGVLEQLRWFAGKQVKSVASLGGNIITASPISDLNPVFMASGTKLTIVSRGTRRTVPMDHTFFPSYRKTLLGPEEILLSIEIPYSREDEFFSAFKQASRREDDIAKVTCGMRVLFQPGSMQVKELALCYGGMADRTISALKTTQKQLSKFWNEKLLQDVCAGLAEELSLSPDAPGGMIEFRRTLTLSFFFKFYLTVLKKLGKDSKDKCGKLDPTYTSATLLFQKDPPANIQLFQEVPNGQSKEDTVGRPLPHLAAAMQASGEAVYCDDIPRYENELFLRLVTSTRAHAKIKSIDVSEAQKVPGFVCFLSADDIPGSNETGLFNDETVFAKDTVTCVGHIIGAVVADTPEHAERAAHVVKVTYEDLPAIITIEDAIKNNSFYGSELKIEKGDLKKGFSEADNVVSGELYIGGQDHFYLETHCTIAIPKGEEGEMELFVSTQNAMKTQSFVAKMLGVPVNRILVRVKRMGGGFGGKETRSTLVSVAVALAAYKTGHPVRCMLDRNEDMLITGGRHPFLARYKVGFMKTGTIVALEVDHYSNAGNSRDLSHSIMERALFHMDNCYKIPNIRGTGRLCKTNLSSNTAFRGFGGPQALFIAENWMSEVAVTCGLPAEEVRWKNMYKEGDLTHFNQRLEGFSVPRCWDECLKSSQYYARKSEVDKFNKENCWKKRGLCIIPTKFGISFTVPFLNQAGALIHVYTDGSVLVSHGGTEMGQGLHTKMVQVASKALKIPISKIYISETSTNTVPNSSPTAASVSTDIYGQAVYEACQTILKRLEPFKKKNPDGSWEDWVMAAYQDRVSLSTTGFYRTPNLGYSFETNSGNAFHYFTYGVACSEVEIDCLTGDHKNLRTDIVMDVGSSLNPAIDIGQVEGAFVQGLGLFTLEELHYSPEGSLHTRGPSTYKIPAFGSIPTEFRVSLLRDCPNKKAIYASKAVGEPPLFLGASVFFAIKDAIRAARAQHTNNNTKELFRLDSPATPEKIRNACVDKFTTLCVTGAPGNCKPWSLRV

[2] = biological target: T1, Xanthine dehydrogenase/oxidase; test: Inhibition of bovine xanthine oxidase assessed as reduction in uric acid formation at 10 uM using xanthine as substrate pretreated for 5 mins followed by substrate addition measured by UV-vis spectrophotometric method relative to control; settings: cattle
[3] = biological target: T1, Xanthine dehydrogenase/oxidase; test: Inhibition of bovine xanthine oxidase assessed as reduction in uric acid formation at 100 uM using xanthine as substrate pretreated for 5 mins followed by substrate addition measured by UV-vis spectrophotometric method relative to control; settings: cattle
[4] = biological target: T1, Xanthine dehydrogenase/oxidase; test: Inhibition of bovine xanthine oxidase assessed as reduction in uric acid formation using xanthine as substrate pretreated for 5 mins followed by substrate addition measured by UV-vis spectrophotometric method

| inhibition at 1 µM [1] [%] | inhibition at 10 µM [2] [%] | inhibition at 100 µM [3] [%] | IC50 [4] [µM] | Compound |
| --- | --- | --- | --- | --- |
| 22.2 | 30.5 | 61.9 | 64 | COc1ccc(Nc2ncnc3c2C(c2ccc([N+](=O)[O-])cc2)c2c(c(=O)oc4ccccc24)O3)cc1 (stereo unspecified) |
| 29.1 | 37.5 | 75.4 | 40 | COc1ccc(Nc2ncnc3c2C(c2ccccc2)C2=C(CCCC2=O)O3)cc1 (stereo unspecified) |
| 23.2 | 34.5 | 69.6 | 54 | COc1ccc(Nc2ncnc3c2C(c2cccc(Cl)c2)c2c(c(=O)oc4ccccc24)O3)cc1 (stereo unspecified) |
| 28.7 | 39.1 | 78.2 | 37 | COc1ccc(Nc2ncnc3c2C(c2cccc(C)c2)c2c(c(=O)oc4ccccc24)O3)cc1 (stereo unspecified) |
| 36.7 | 48 | 94 | 17 | COc1ccc(Nc2ncnc3c2C(c2ccc(OC)c(OC)c2)c2c(c(=O)oc4ccccc24)O3)cc1 (stereo unspecified) |
| 27.4 | 38 | 76.8 | 40 | COc1ccc(Nc2ncnc3c2C(c2cc(OC)c(OC)c(OC)c2)C2=C(CCCC2=O)O3)cc1 (stereo unspecified) |
| 34.8 | 43.2 | 86.5 | 24 | COc1ccc(Nc2ncnc3c2C(c2ccccc2OC)C2=C(CCCC2=O)O3)cc1 (stereo unspecified) |
| 30.5 | 42.4 | 84.8 | 28 | COc1ccc(Nc2ncnc3c2C(c2ccc(O)cc2)C2=C(CCCC2=O)O3)cc1 (stereo unspecified) |
| 31 | 40.2 | 80.5 | 35 | COc1ccc(Nc2ncnc3c2C(c2cccc(C)c2)C2=C(CCCC2=O)O3)cc1 (stereo unspecified) |
| 28.5 | 39.5 | 81.3 | 35 | COc1ccc(Nc2ncnc3c2C(c2cccc(O)c2)c2c(c(=O)oc4ccccc24)O3)cc1 (stereo unspecified) |
| 29.4 | 41.2 | 82.3 | 30 | COc1ccc(Nc2ncnc3c2C(c2cccc(O)c2)C2=C(CCCC2=O)O3)cc1 (stereo unspecified) |
| 20 | 31.5 | 63.5 | 67 | COc1ccc(Nc2ncnc3c2C(c2ccc([N+](=O)[O-])cc2)C2=C(CCCC2=O)O3)cc1 (stereo unspecified) |
| 30.9 | 41.2 | 82.4 | 30 | COc1ccc(Nc2ncnc3c2C(c2ccc(O)cc2)c2c(c(=O)oc4ccccc24)O3)cc1 (stereo unspecified) |
| 32.3 | 43.5 | 87.4 | 25 | COc1ccc(Nc2ncnc3c2C(c2ccc(OC)cc2)C2=C(CCCC2=O)O3)cc1 (stereo unspecified) |
| 27.3 | 56.5 | 93.8 | 8.5 | COc1ccc(Nc2ncnc3c2C(c2ccc(O)c(O)c2)C2=C(CCCC2=O)O3)cc1 (stereo unspecified) |
| 30.3 | 60 | 95 | 7 | COc1ccc(Nc2ncnc3c2C(c2ccc(O)c(OC)c2)C2=C(CCCC2=O)O3)cc1 (stereo unspecified) |
| 29.3 | 57.5 | 94.2 | 8 | COc1ccc(Nc2ncnc3c2C(c2ccc(OC)c(OC)c2)C2=C(CCCC2=O)O3)cc1 (stereo unspecified) |
| 33.2 | 47.2 | 92.3 | 15 | COc1ccc(Nc2ncnc3c2C(c2ccc(O)c(OC)c2)c2c(c(=O)oc4ccccc24)O3)cc1 (stereo unspecified) |
| 32.4 | 43.7 | 85.3 | 24 | COc1ccc(Nc2ncnc3c2C(c2ccc(OC)cc2)c2c(c(=O)oc4ccccc24)O3)cc1 (stereo unspecified) |
